Columns and labels:
[1] = test system: Echinochloa oryzoides (Ard.) Fritsch.; experiment: Preemergence weed control under flooded paddy conditions, ECHORC (Watergrass (Calif.)); assay type: in vivo; settings: flooded paddy; for herbicidal effect rating, ECHORC: meaning of each grade not given here
Sagittaria pygmaea, L. = experiment: Preemergence weed control under flooded paddy conditions, SAGPY (Arrowhead (Pygmaea)); assay type: in vivo; settings: flooded paddy; for herbicidal effect rating, SAGPY: meaning of each grade not given here
[2] = test system: Oryza sativa, (L.) Tebonnet; experiment: Rice tolerance to post-transplant applications under flooded paddy conditions (Example 187), ORYSAT (Rice, Tebonnet); for herbicidal effect rating ORYSAT: meaning of each grade not given here
[3] = test system: Monochoria vaginalis, Presl.; experiment: Preemergence weed control under flooded paddy conditions, MOOVA (Monochoria); assay type: in vivo; settings: flooded paddy; for herbicidal effect rating, MOOVA: meaning of each grade not given here
Cyperus iria = experiment: Preemergence weed control under flooded paddy conditions, CYPIR (Rice Flatsedge); assay type: in vivo; settings: flooded paddy; for herbicidal effect rating, CYPIR: meaning of each grade not given here
[4] = test system: Cyperus serotinus, Rottb.; experiment: Preemergence weed control under flooded paddy conditions, CYPSE (Flatsedge); assay type: in vivo; for herbicidal effect rating, CYPSE: meaning of each grade not given here
[5] = Rate 0.0320 kg/ha, preemergence, rated 3-4 weeks after treatment
[6] = Rate 0.0620 kg/ha, preemergence, rated 3-4 weeks after treatment
[7] = Rate 0.1250 kg/ha, preemergence, rated 3-4 weeks after treatment
[8] = Rate 0.2500 kg/ha, preemergence, rated 3-4 weeks after treatment
[9] = Rate 0.5000 kg/ha, preemergence, rated 3-4 weeks after treatment
[10] = 0.0320 kg/ha, preemergence, rated three to four weeks after treatment
[11] = 0.0620 kg/ha, preemergence, rated three to four weeks after treatment
[12] = 0.1250 kg/ha, preemergence, rated three to four weeks after treatment
[13] = 0.2500 kg/ha, preemergence, rated three to four weeks after treatment
[14] = 0.1250 kg/ha, rated three to four weeks after treatment
[15] = 0.2500 kg/ha, rated three to four weeks after treatment
[16] = 0.0313 kg/ha, preemergence weeds, rated three to four weeks after treatment
[17] = 0.0625 kg/ha, preemergence weeds, rated three to four weeks after treatment
[18] = 0.1250 kg/ha, preemergence weeds, rated three to four weeks after treatment
[19] = 0.2500 kg/ha, preemergence weeds, rated three to four weeks after treatment
[20] = Rate 0.0320 kg/ha, preemergence, rated three to four weeks after treatment
[21] = Rate 0.0620 kg/ha, preemergence, rated three to four weeks after treatment
[22] = Rate 0.1250 kg/ha, preemergence, rated three to four weeks after treatment
[23] = Rate 0.2500 kg/ha, preemergence, rated three to four weeks after treatment

SMILES: Cc1ccc(C(=O)C(C)Oc2ccccc2-c2nsc3ccc(-n4c(=O)cc(C(F)(F)F)n(C)c4=O)cc23)cc1C (centres unmarked) [Example 550, 2,4(1H,3H)-Pyrimidinedione, 3-{-3-{o-[1-(3,4-dimethylbenzoyl)ethoxy]phenyl}-1,2-benzisothiazol-5-yl]-1-methyl-6-(trifluoromethyl)-]
- herbicidal effect rating, ECHORC [1, 5]: 4.7
- herbicidal effect rating, ECHORC [1, 6]: 5.9
- herbicidal effect rating, ECHORC [1, 7]: 5.9
- herbicidal effect rating, ECHORC [1, 8]: 9.0
- herbicidal effect rating, ECHORC [1, 9]: 9.0
- herbicidal effect rating, SAGPY (Sagittaria pygmaea, L.; [5]): 0.0
- herbicidal effect rating, SAGPY (Sagittaria pygmaea, L.; [6]): 0.0
- herbicidal effect rating, SAGPY (Sagittaria pygmaea, L.; [7]): 0.0
- herbicidal effect rating, SAGPY (Sagittaria pygmaea, L.; [8]): 0.0
- herbicidal effect rating, SAGPY (Sagittaria pygmaea, L.; [9]): 0.0
- herbicidal effect rating ORYSAT ([2]; Rate 0.0320 kg/ha, rated 3-4 weeks after treatment): 0.0
- herbicidal effect rating ORYSAT ([2]; Rate 0.0620 kg/ha, rated 3-4 weeks after treatment): 0.0
- herbicidal effect rating ORYSAT ([2]; Rate 0.1250 kg/ha, rated 3-4 weeks after treatment): 0.0
- herbicidal effect rating ORYSAT ([2]; Rate 0.2500 kg/ha, rated 3-4 weeks after treatment): 0.0
- herbicidal effect rating ORYSAT ([2]; Rate 0.5000 kg/ha, rated 3-4 weeks after treatment): 0.0
- herbicidal effect rating, MOOVA [3, 5]: 9.0
- herbicidal effect rating, MOOVA [3, 6]: 9.0
- herbicidal effect rating, MOOVA [3, 7]: 9.0
- herbicidal effect rating, MOOVA [3, 8]: 9.0
- herbicidal effect rating, MOOVA [3, 9]: 9.0
- herbicidal effect rating, CYPIR (Cyperus iria; [5]): 2.0
- herbicidal effect rating, CYPIR (Cyperus iria; [6]): 8.0
- herbicidal effect rating, CYPIR (Cyperus iria; [7]): 8.0
- herbicidal effect rating, CYPIR (Cyperus iria; [8]): 7.0
- herbicidal effect rating, CYPIR (Cyperus iria; [9]): 5.0
- herbicidal effect rating, CYPSE [4, 5]: 0.0
- herbicidal effect rating, CYPSE [4, 6]: 0.0
- herbicidal effect rating, CYPSE [4, 7]: 0.0
- herbicidal effect rating, CYPSE [4, 8]: 0.0
- herbicidal effect rating, CYPSE [4, 9]: 9.0

SMILES: CC(C)OC(=O)C(C)(C)c1nsc2ccc(-n3c(=O)cc(C(F)(F)F)n(C)c3=O)cc12 [Example 489, 1,2-Benzisothiazole-3-acetic acid, 5-[3,6-dihydro-3-methyl-2,6-dioxo-4-(trifluoromethyl)-1(2H)-pyrimidinyl]-alpha,alpha-dimethyl-, isopropyl ester]
- ECHORC herbicidal rating [1, 10]: 7.0
- ECHORC herbicidal rating [1, 11]: 7.0
- ECHORC herbicidal rating [1, 12]: 9.0
- ECHORC herbicidal rating [1, 13]: 9.0
- SAGPY herbicidal rating (Sagittaria pygmaea, L.; [10]): 6.0
- SAGPY herbicidal rating (Sagittaria pygmaea, L.; [11]): 9.0
- SAGPY herbicidal rating (Sagittaria pygmaea, L.; [12]): 9.0
- SAGPY herbicidal rating (Sagittaria pygmaea, L.; [13]): 9.0
- ORYSAT herbicidal rating (rice tolerance) ([2]; 0.0320 kg/ha, rated three to four weeks after treatment): 5.0
- ORYSAT herbicidal rating (rice tolerance) ([2]; 0.0620 kg/ha, rated three to four weeks after treatment): 6.0
- ORYSAT herbicidal rating (rice tolerance) [2, 14]: 6.0
- ORYSAT herbicidal rating (rice tolerance) [2, 15]: 6.0
- MOOVA herbicidal rating [3, 10]: 9.0
- MOOVA herbicidal rating [3, 11]: 9.0
- MOOVA herbicidal rating [3, 12]: 9.0
- MOOVA herbicidal rating [3, 13]: 9.0
- CYPIR herbicidal rating (Cyperus iria; [10]): 6.0
- CYPIR herbicidal rating (Cyperus iria; [11]): 9.0
- CYPIR herbicidal rating (Cyperus iria; [12]): 9.0
- CYPIR herbicidal rating (Cyperus iria; [13]): 9.0
- CYPSE herbicidal rating [4, 10]: 6.0
- CYPSE herbicidal rating [4, 11]: 7.0
- CYPSE herbicidal rating [4, 12]: 9.0
- CYPSE herbicidal rating [4, 13]: 9.0

SMILES: CCc1nsc2ccc(-n3c(=O)cc(C(F)(F)F)n(C)c3=O)cc12 [Example 119, 3-(3-Ethyl-1,2-benzisothiazol-5-yl)-1-methyl-6-(trifluoromethyl)-2,4(1H,3H)-pyrimidinedione]
- herbicidal effect rating, ECHORC [1, 16]: 4.0
- herbicidal effect rating, ECHORC [1, 17]: 9.0
- herbicidal effect rating, ECHORC [1, 18]: 9.0
- herbicidal effect rating, ECHORC [1, 19]: 9.0
- herbicidal effect rating, SAGPY (Sagittaria pygmaea, L.; [16]): 6.0
- herbicidal effect rating, SAGPY (Sagittaria pygmaea, L.; [17]): 8.0
- herbicidal effect rating, SAGPY (Sagittaria pygmaea, L.; [18]): 8.0
- herbicidal effect rating, SAGPY (Sagittaria pygmaea, L.; [19]): 9.0
- herbicidal effect rating, ORYSAT (rice tolerance) ([2]; 0.0313 kg/ha, rated three to four weeks after treatment): 7.0
- herbicidal effect rating, ORYSAT (rice tolerance) ([2]; 0.0625 kg/ha, rated three to four weeks after treatment): 8.0
- herbicidal effect rating, ORYSAT (rice tolerance) [2, 14]: 9.0
- herbicidal effect rating, ORYSAT (rice tolerance) [2, 15]: 9.0
- herbicidal effect rating, MOOVA [3, 16]: 9.0
- herbicidal effect rating, MOOVA [3, 17]: 9.0
- herbicidal effect rating, MOOVA [3, 18]: 9.0
- herbicidal effect rating, MOOVA [3, 19]: 9.0
- herbicidal effect rating, CYPIR (Cyperus iria; [16]): 9.0
- herbicidal effect rating, CYPIR (Cyperus iria; [17]): 9.0
- herbicidal effect rating, CYPIR (Cyperus iria; [18]): 9.0
- herbicidal effect rating, CYPIR (Cyperus iria; [19]): 9.0
- herbicidal effect rating, CYPSE [4, 16]: 2.0
- herbicidal effect rating, CYPSE [4, 17]: 4.0
- herbicidal effect rating, CYPSE [4, 18]: 8.0
- herbicidal effect rating, CYPSE [4, 19]: 9.0

SMILES: Cn1c(C(F)(F)F)cc(=O)n(-c2ccc3snc(COCc4ccc(Cl)cc4)c3c2)c1=O [Example 584, 2,4(1H,3H)-Pyrimidinedione, 3-{3-{[(p-chlorobenzyl)oxy]methyl}-1,2-benzisothiazol-5-yl}-1-methyl-6-(trifluoromethyl)-]
- herbicidal effect rating, ECHORC [1, 20]: 6.0
- herbicidal effect rating, ECHORC [1, 21]: 9.0
- herbicidal effect rating, ECHORC [1, 22]: 9.0
- herbicidal effect rating, ECHORC [1, 23]: 9.0
- herbicidal effect rating, SAGPY (Sagittaria pygmaea, L.; [20]): 0.0
- herbicidal effect rating, SAGPY (Sagittaria pygmaea, L.; [21]): 1.5
- herbicidal effect rating, SAGPY (Sagittaria pygmaea, L.; [22]): 4.0
- herbicidal effect rating, SAGPY (Sagittaria pygmaea, L.; [23]): 2.0
- herbicidal effect rating ORYSAT ([2]; Rate 0.0320 kg/ha, rated three to four weeks after treatment): 0.0
- herbicidal effect rating ORYSAT ([2]; Rate 0.0620 kg/ha, rated three to four weeks after treatment): 1.0
- herbicidal effect rating ORYSAT ([2]; Rate 0.1250 kg/ha, rated three to four weeks after treatment): 1.0
- herbicidal effect rating ORYSAT ([2]; Rate 0.2500 kg/ha, rated three to four weeks after treatment): 3.5
- herbicidal effect rating, MOOVA [3, 20]: 3.0
- herbicidal effect rating, MOOVA [3, 21]: 8.0
- herbicidal effect rating, MOOVA [3, 22]: 9.0
- herbicidal effect rating, MOOVA [3, 23]: 9.0
- herbicidal effect rating, CYPIR (Cyperus iria; [20]): 1.5
- herbicidal effect rating, CYPIR (Cyperus iria; [21]): 6.0
- herbicidal effect rating, CYPIR (Cyperus iria; [22]): 9.0
- herbicidal effect rating, CYPIR (Cyperus iria; [23]): 9.0
- herbicidal effect rating, CYPSE [4, 20]: 0.0
- herbicidal effect rating, CYPSE [4, 21]: 0.0
- herbicidal effect rating, CYPSE [4, 23]: 0.0

Source: EP0908457B1, “3-(1,2-benzisothiazol- and isoxazol-5-Y1)-2,4(1H,3H)-pyrimidinedione or thione and 3-(1,2-benzisothiazol- and isoxazol-5-y1)-4(3H)-pyrimidinone or thione herbicidal agents” (BASF AKTIENGESELLSCHAFT, priority 1997, dated 1999)
